This is an account of results in patent US20240050427A1, “TREATMENTS FOR OBSESSIVE COMPULSIVE DISORDER” (SIRGARTAN HOLDINGS LTD, priority 2022, published 2024).

In series [1] the test system is rat model of OCD. Briefly: Observing Response Task (ORT), rat model of compulsive-like checking in OCD (sign-trackers = OCD model, goal-trackers = controls). Type of series: in vivo. An excerpt:
OCD may be studied using animal models and such models may be used to evaluate compounds of the present invention. One model may be a rat model of compulsive-like checking behaviour described by Eagle et al., Behav. Brain Res, 1 May 2014; 264(100): 207-29. Briefly, rats are trained to work for palatable food which is unpredictably available for responding on one of two levers in an operant chamber. The rats can gain information about the location of the effective lever by making ‘observing responses’ on a third lever at the rear of the chamber. Predictably, responding on this lever is increased under conditions of uncertainty, as this adaptive checking increases the chance of food reward. However, some rats respond excessively on the observing lever and this can be disadvantageous or ‘non-functional’. This excessive checking behaviour is boosted by treatment with dopamine D2 receptor drugs such as quinpirole and also if there is a prior tendency in rats to over-respond to conditioning signals for food (‘sign-tracking’), associated with elevated dopamine activity in the nucleus accumbens. Rats who respond to the food itself are called goal-trackers. […] Moreover, in a human version of this test (i.e. involving essentially the same task for humans as for rodents), it has been shown that OCD patients check more than healthy control volunteers (Morein-Zamir et al., Q. J. Exp. Psychol. (Hove), 2018 October; 71(10): 2052-2069).
Male Lister-hooded rats (n=48, Charles River, UK) were group-housed in fours and maintained at approximately 95% free-feeding weight. Experiments were conducted during the dark phase of a reversed 12-hour light-dark cycle (lights off at 07:00). This research was conducted on UK Home Office Project Licence PA9FBFA9F and was regulated under the Animals (Scientific Procedures) Act 1986 Amendment Regulations 2012 following ethical review by the University of Cambridge Animal Welfare and Ethical Review Body.
The 48 male Lister-Hooded rats were trained on the Observing Response Task (ORT) and classified as sign-trackers […] or goal-trackers (n=24) following AutoShaping training, as described previously. Based on the research described above, the sign-tracker rats provide the OCD model and the goal-trackers are controls.
The ‘drug treatment’ data refer to behaviour under the influence of the specific dose (3 mg/kg or 10 mg/kg), 2 hours after an intraperitoneal injection. The ‘0 mg/kg’ data refer to an intraperitoneal injection of the 0.9% (w/v) physiological saline vehicle.
Rats were divided into groups to receive different doses of AZD-8529 in a counterbalanced order. […] “mg/kg” refers to a dose that was determined based on the body weight of the rat. For example, a rat weighing 0.5 kg receiving a dose of 3 mg/kg would receive a dose of 1.5 mg.
All statistical analyses were conducted using IBM SPSS Statistics v27. Data were analysed using repeated measures ANOVAs. Omnibus ANOVAs were first conducted to determine whether the order of drug dosing influenced the behavioural outcomes, and whether there were differences in baseline levels of responding. Planned ANOVAs assessing the drug administration sessions only were subsequently conducted.

The subject of series [2] is rat model of OCD. The series is described as above. Type of series: in vivo. The following applies: rats, 30 mg/kg single intraperitoneal dose.

Take `Cc1cc(-c2nc(CN3CCNCC3)no2)cc2c1C(=O)N(Cc1ccc(OC(F)(F)F)cc1)C2` [AZD-8529, 7-methyl-5-(3-piperazin-1-ylmethyl-[1,2,4]oxadiazol-5-yl)-2-(4-trifluoromethoxybenzyl)-2,3-dihydroisoindol-1-one]: the “number of rewards earned during the session” value in series [1] (3 mg/kg i.p. vs vehicle, full cohort, p=0.91) is given as “equivalent numbers of rewards were earned”; in series [1] (10 mg/kg i.p., full cohort, compared to vehicle and 3 mg/kg, p<0.001), “reduced the numbers of reward earned”. Further, the “increased responding on the active lever during the cue (discrimination with light on)” value is “not seen” in series [1] (3 mg/kg i.p., full cohort, p=0.38) and “not seen” in series [1] (10 mg/kg i.p., full cohort, p=0.21). Further, the “dysfunctional checking (eOLPs)” value in series [1] (OCD model (sign-trackers), 3 mg/kg i.p. vs 0 mg/kg control, p<0.002) is reported as “reduction in dysfunctional checking”; in series [1] (OCD model (sign-trackers), 10 mg/kg i.p. vs 0 mg/kg control, p<0.002, not lower than 3 mg/kg (p=0.94)), “reduction in dysfunctional checking”; in series [1] (controls (goal-trackers), 3 and 10 mg/kg i.p., all p's>0.079) it was “no overall reduction in dysfunctional checking”. In addition, the “functional checking (Observing Lever Presses, OLPs)” value is recorded as “reduced functional checking in a dose-dependent manner” in series [1] (OCD model (sign-trackers), 3 and 10 mg/kg i.p., 2 hours after injection, p<0.001); “reduced functional checking in a dose-dependent manner” in series [1] (controls (goal-trackers), 3 and 10 mg/kg i.p., 2 hours after injection, p=0.008); “reduced functional checking in a dose-dependent manner” in series [1] (full cohort (sign-trackers plus goal-trackers), 3 and 10 mg/kg i.p. vs 0 mg/kg, 2 hours after injection, mesylate salt, p<0.001). Besides, the “dysfunctional checking (Extra Observing Lever Presses, eOLPs)” value in series [1] (full cohort, 3 and 10 mg/kg i.p. vs 0 mg/kg, 2 hours after injection, p<0.001) was “reduced dysfunctional checking in a dose-dependent manner”. Also, the adverse effects entry in series [2] is recorded as “unexpected adverse gastrointestinal effects”.
